Data published in article PMC9911596 (Nature Communications, 2023).
Where a chain is given by its changes, count along the chain named.

How the values were obtained:
[1] = target: T1, Vtc1/Vtc3/Vtc4 complex (VTC complex) (Saccharomyces cerevisiae, UniProt P47075+Q02725, Q02725:K333A/Q02725:K362A/Q02725:K364A/Q02725:Y380F); assay: polyP synthesis, TBE-PAGE; assay type: biochemical; details: activator; 15 mM ATP, 10 mM MgCl2, 1 mM MnCl2, 0.5 mM pyrophosphate, 27 °C; TTM cleft (second site) mutant
T1 construct: full-length subunits co-expressed in Expi293F; Vtc1 C-terminal HA, Vtc3 N-terminal 3xFlag, Vtc4 C-terminal 2xStrep; detergent-purified; 3:1:1 pentamer; with Vacuolar transporter chaperone complex subunit 1
T1 sequence (P47075 1-721): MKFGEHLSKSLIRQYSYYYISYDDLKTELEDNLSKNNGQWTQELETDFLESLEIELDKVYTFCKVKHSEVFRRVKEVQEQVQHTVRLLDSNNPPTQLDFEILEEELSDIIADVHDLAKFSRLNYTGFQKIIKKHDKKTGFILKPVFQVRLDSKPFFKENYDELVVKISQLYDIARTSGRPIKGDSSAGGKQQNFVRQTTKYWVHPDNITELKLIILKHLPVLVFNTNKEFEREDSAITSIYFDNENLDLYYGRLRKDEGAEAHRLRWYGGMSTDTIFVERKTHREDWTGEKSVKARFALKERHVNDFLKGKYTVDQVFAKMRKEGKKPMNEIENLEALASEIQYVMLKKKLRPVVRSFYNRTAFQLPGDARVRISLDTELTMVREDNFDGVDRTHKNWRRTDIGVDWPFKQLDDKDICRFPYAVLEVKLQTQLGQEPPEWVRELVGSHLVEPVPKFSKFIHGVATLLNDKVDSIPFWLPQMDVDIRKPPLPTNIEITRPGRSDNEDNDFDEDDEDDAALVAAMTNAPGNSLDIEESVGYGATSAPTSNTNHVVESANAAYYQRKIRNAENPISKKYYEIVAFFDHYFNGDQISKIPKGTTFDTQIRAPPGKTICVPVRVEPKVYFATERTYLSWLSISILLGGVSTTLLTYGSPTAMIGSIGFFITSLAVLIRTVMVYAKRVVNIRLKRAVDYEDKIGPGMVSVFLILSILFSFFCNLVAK
T1 sequence (Q02725 1-835 K333A/K362A/K364A/Y380F): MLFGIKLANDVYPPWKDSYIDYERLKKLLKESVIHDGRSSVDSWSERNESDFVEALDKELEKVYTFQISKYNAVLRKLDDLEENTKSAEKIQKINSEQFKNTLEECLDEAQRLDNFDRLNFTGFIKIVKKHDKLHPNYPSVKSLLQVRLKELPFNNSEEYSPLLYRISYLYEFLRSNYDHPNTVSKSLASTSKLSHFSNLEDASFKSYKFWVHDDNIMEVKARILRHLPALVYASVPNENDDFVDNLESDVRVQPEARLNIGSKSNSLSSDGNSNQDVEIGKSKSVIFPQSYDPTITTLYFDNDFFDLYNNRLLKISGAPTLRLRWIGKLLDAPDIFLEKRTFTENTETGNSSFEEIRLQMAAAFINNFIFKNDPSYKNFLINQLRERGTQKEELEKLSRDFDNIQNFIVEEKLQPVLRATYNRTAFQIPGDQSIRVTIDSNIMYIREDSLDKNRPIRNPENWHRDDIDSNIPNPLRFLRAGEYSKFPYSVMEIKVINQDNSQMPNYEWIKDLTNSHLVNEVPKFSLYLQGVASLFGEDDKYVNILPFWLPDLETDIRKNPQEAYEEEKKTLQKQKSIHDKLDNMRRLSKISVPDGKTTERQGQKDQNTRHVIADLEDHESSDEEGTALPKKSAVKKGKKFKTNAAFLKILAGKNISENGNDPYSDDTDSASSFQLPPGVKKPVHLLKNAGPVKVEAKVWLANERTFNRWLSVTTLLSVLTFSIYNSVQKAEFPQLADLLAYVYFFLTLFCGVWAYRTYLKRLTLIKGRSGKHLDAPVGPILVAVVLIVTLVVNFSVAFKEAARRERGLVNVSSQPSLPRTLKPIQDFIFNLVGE
T1 sequence (P40046 2-129 partner): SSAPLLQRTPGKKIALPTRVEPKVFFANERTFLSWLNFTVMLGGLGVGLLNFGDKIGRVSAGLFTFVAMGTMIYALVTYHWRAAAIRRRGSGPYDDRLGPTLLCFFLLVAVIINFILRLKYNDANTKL

[2] = target: T2, Vtc1/Vtc3/Vtc4 complex (VTC complex) (Saccharomyces cerevisiae, UniProt P47075+Q02725, Q02725:Y22F/Q02725:K26A/Q02725:K130A); assay: polyP synthesis, TBE-PAGE; assay type: biochemical; details: activator; 15 mM ATP, 10 mM MgCl2, 1 mM MnCl2, 0.5 mM pyrophosphate, 27 °C, 4 h; SPX PBC mutant
T2 construct: full-length subunits co-expressed in Expi293F; Vtc1 C-terminal HA, Vtc3 N-terminal 3xFlag, Vtc4 C-terminal 2xStrep; detergent-purified; 3:1:1 pentamer; with Vacuolar transporter chaperone complex subunit 1
T2 sequence (P47075 1-721): T1 sequence (P47075 1-721)
T2 sequence (Q02725 1-835 Y22F/K26A/K130A): T1 sequence (Q02725 1-835 K333A/K362A/K364A/Y380F) with Y22F, K26A, K130A, A333K, A362K, A364K, F380Y
T2 sequence (P40046 2-129 partner): T1 sequence (P40046 2-129 partner)

Q: For `O=P(O)(O)O[C@H]1[C@H](OP(=O)(O)O)[C@@H](OP(=O)(O)O)[C@H](OP(=O)(O)O)[C@@H](OP(=O)(O)O)[C@H]1OP(=O)(O)O` [InsP6], which “polyP synthesis, TBE-PAGE” value [1] is on record?
A: Its value is “had little impact on InsP6-stimulated polyP synthesis by VTC complex”.

Q: What about the “polyP synthesis, TBE-PAGE” value [2] of the same molecule?
A: The value was “residues had little effect on polyP synthesis”.
